Among the data in patent publication US10730881B2, “Fused pyrimidine derivatives” (Hoffmann-La Roche Inc., priority 2016, dated 2020) are EC50 values, retold here.

As a reminder, the EC50 is the midpoint of the concentration-response curve.

Molecules are shown by their SMILES.

The test addresses γ-secretase (Homo sapiens, UniProt P49768). Kind of test: Cellular γ-secretase assay (inhibition of Aβ42 secretion, AlphaLisa). Type of test: cell-based. The conditions noted are these: human neuroglioma H4 cells overexpressing human APP695 Swedish double mutation, 24 hr compound incubation. The procedure: Human neuroglioma H4 cells overexpressing human APP695 with the Swedish double mutation (K595N/M596L) were plated at 30,000 cells/well/100 μl in 96-well plates in IMDM media containing 10% FCS, 0.2 mg/l Hygromycin B and incubated at 37° C., 5% CO2. 3-4 hr post plating, compounds are a diluted in media and 50 μl is added as 1.5-fold concentrate to achieve the final concentration. Compound incubation is performed for 24 hr. Final doses typically range from 4 μM down to 0.0013 μM in half-log steps resulting in a eight point dose response curve. Appropriate controls using vehicle only and reference compound were applied to this assay. The final concentration of Me2SO was 0.4%. After incubation at 37° C., 5% CO2, the supernatant was subjected to quantification of secreted Aβ42 by the means of an AlphaLisa assay kit (Human Amyloid beta 1-42 Kit: Cat # A[…], Perkin Elmer). 20 μl of the cell culture supernatant was transferred to an assay plate. […] The assay plate was then read on a Paradigm AlphaLisa Reader using the build-in program with excitation at 680 nm and emission at 570 nm. The measured signals were then used to calculate IC50 values for inhibition of Aβ42 secretion by nonlinear regression fit analysis using XLfit 5.3 software (IDBS).
(Alpha assays give light when donor and acceptor beads are brought close together.)

`CNc1nc(N[C@@H]2[C@@H]3CC[C@H]2CN(c2cc(C)ncn2)C3)nc2c1C(C)(C)CN2C1CC(F)(F)C1` [Example 13, 7-(3,3-Difluorocyclobutyl)-N4,5,5-trimethyl-N2-((1R,5S,8s)-3-(6-methylpyrimidin-4-yl)-3-azabicyclo[3.2.1]octan-8-yl)-6,7-dihydro-5H-pyrrolo[2,3-d]pyrimidine-2,4-diamine]: the EC50 is 36 nM.
